Data taken from patent publication US20260262643A1, “HERBICIDAL BENZOXAZINES” (FMC CORPORATION, priority 2022, published 2026).

Tests used:
[1] = system: corn; assay: Test A postemergence; assay type: in vivo, Zea mays; conditions: postemergence, 10 days, visual injury, 0 to 100 scale (0 no effect, 100 complete control)
Summary of the method: (§1)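 Loam/sand soil; pre-em directed soil spray at planting, post-em spray at 1–2 leaf (2–10 cm). Compound in non-phytotoxic solvent + surfactant. Greenhouse 10 d; visual injury vs untreated, 0 = no effect, 100 = complete control.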

[2] = system: ryegrass, Italian; assay: Test A preemergence; assay type: in vivo, Lolium multiflorum
Summary of the method: as §1

[3] = system: oat, wild; assay: Test A preemergence; assay type: in vivo, Avena fatua
Summary of the method: as §1

[4] = system: foxtail, giant; assay: Test A preemergence; assay type: in vivo, Setaria faberi
Summary of the method: as §1

[5] = system: sedge, umbrella; assay: Test B flooded paddy test; assay type: in vivo, Cyperus difformis; conditions: 250 g ai/ha, Flood, 13 days, 0 to 100 scale (0 no effect, 100 complete control)
Summary of the method: (§2)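 Flooded to 3 cm at treatment time, 2-leaf plants got the test compound applied straight into the paddy water. They then stayed under constant flood in a greenhouse for 13 days. Ratings used a 0 to 100 visual scale.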

[6] = system: rice; assay: Test B flooded paddy test; assay type: in vivo, Oryza sativa; conditions: 250 g ai/ha, Flood, 13 days, 0 to 100 scale (0 no effect, 100 complete control)
Summary of the method: as §2

[7] = system: oat, wild; assay: Test A postemergence; assay type: in vivo, Avena fatua; conditions: 500 g ai/ha, postemergence, 10 days, visual injury, 0 to 100 scale (0 no effect, 100 complete control)
Summary of the method: as §1

[8] = system: blackgrass; assay: Test A postemergence; assay type: in vivo, Alopecurus myosuroides
Summary of the method: as §1

[9] = system: goosegrass; assay: Test A preemergence; assay type: in vivo, Eleusine indica
Summary of the method: as §1

[10] = system: pigweed, palmer; assay: Test A postemergence; assay type: in vivo, Amaranthus palmeri; conditions: 500 g ai/ha, postemergence, 10 days, visual injury, 0 to 100 scale (0 no effect, 100 complete control)
Summary of the method: as §1

[11] = system: barnyardgrass; assay: Test B flooded paddy test; assay type: in vivo, Echinochloa crus-galli; conditions: 250 g ai/ha, Flood, 13 days, 0 to 100 scale (0 no effect, 100 complete control)
Summary of the method: as §2

[12] = system: horseweed; assay: Test A postemergence; assay type: in vivo, Erigeron canadensis; conditions: postemergence, 10 days, visual injury, 0 to 100 scale (0 no effect, 100 complete control)
Summary of the method: as §1

[13] = system: ragweed; assay: Test A preemergence; assay type: in vivo, Ambrosia artemisiifolia
Summary of the method: as §1

[14] = system: corn; assay: Test A preemergence; assay type: in vivo, Zea mays
Summary of the method: as §1

[15] = system: wheat; assay: Test A preemergence; assay type: in vivo, Triticum aestivum
Summary of the method: as §1

[16] = system: ducksalad; assay: Test B flooded paddy test; assay type: in vivo, Heteranthera limosa; conditions: 250 g ai/ha, Flood, 13 days, 0 to 100 scale (0 no effect, 100 complete control)
Summary of the method: as §2

[17] = system: kochia; assay: Test A postemergence; assay type: in vivo, Bassia scoparia; conditions: postemergence, 10 days, visual injury, 0 to 100 scale (0 no effect, 100 complete control)
Summary of the method: as §1

[18] = system: blackgrass; assay: Test A preemergence; assay type: in vivo, Alopecurus myosuroides
Summary of the method: as §1

[19] = system: ragweed; assay: Test A postemergence; assay type: in vivo, Ambrosia artemisiifolia; conditions: 500 g ai/ha, postemergence, 10 days, visual injury, 0 to 100 scale (0 no effect, 100 complete control)
Summary of the method: as §1

[20] = system: galium; assay: Test A postemergence; assay type: in vivo, Galium aparine; conditions: postemergence, 10 days, visual injury, 0 to 100 scale (0 no effect, 100 complete control)
Summary of the method: as §1

[21] = system: goosegrass; assay: Test A postemergence; assay type: in vivo, Eleusine indica; conditions: postemergence, 10 days, visual injury, 0 to 100 scale (0 no effect, 100 complete control)
Summary of the method: as §1

[22] = system: soybean; assay: Test A postemergence; assay type: in vivo, Glycine max; conditions: 500 g ai/ha, postemergence, 10 days, visual injury, 0 to 100 scale (0 no effect, 100 complete control)
Summary of the method: as §1

[23] = system: kochia; assay: Test A preemergence; assay type: in vivo, Bassia scoparia
Summary of the method: as §1

[24] = system: wheat; assay: Test A postemergence; assay type: in vivo, Triticum aestivum; conditions: 500 g ai/ha, postemergence, 10 days, visual injury, 0 to 100 scale (0 no effect, 100 complete control)
Summary of the method: as §1

[25] = system: ryegrass, Italian; assay: Test A postemergence; assay type: in vivo, Lolium multiflorum; conditions: 500 g ai/ha, postemergence, 10 days, visual injury, 0 to 100 scale (0 no effect, 100 complete control)
Summary of the method: as §1

[26] = system: foxtail, giant; assay: Test A postemergence; assay type: in vivo, Setaria faberi; conditions: postemergence, 10 days, visual injury, 0 to 100 scale (0 no effect, 100 complete control)
Summary of the method: as §1

[27] = system: pigweed, palmer; assay: Test A preemergence; assay type: in vivo, Amaranthus palmeri
Summary of the method: as §1

[28] = system: soybean; assay: Test A preemergence; assay type: in vivo, Glycine max
Summary of the method: as §1

[29] = 125 g ai/ha, visual injury after 10 days, 0 to 100 scale, 0 is no effect, 100 is complete control
[30] = 500 g ai/ha, 0 to 100 scale (0 no effect, 100 complete control), 10 days
[31] = 125 g ai/ha, postemergence, 10 days, visual injury, 0 to 100 scale (0 no effect, 100 complete control)
[32] = 500 g ai/ha, Postemergence, 0 to 100 scale

C[C@H]1CN(C(=O)c2cc(-n3cncn3)ccc2C(F)(F)F)c2cccc(Cl)c2O1 [Compound 70] was tested, and the “Plant response rating, Corn” value ([1]; 125 g ai/ha) was 10, the “Plant response rating, Corn” value ([1]; 500 g ai/ha) was 10 and the “Plant response rating, Ryegrass, Italian” value [2, 29] was 50. The “Plant response rating, Ryegrass, Italian” value [2, 30] was 90, the “Plant response rating, Oat, Wild” value [3, 29] was 0 and the “Plant response rating, Oat, Wild” value [3, 30] was 70. For the same molecule, the “Plant response rating, Foxtail, Giant” value [4, 29] was 20, the “Plant response rating, Foxtail, Giant” value [4, 30] was 100 and the “Plant response rating, Sedge, Umbrella” value [5] was 0. The “Plant response rating, Rice” value [6] was 0, the “Plant response rating, Oat, Wild” value [7] was 10 and the “Plant response rating, Blackgrass” value [8, 31] was 30. The “Plant response rating, Blackgrass” value [8, 32] was 70, the “Plant response rating, Goosegrass” value [9, 29] was 70 and the “Plant response rating, Goosegrass” value [9, 30] was 100. For the same molecule, the “Plant response rating, Pigweed, Palmer” value [10] was 70, the “Plant response rating, Barnyardgrass” value [11] was 0 and the “Plant response rating, Horseweed” value ([12]; 125 g ai/ha) was 0. The “Plant response rating, Horseweed” value ([12]; 500 g ai/ha) was 0, the “Plant response rating, Ragweed” value [13, 29] was 0 and the “Plant response rating, Ragweed” value [13, 30] was 0. For the same molecule, the “Plant response rating, Corn” value [14, 29] was 10, the “Plant response rating, Corn” value [14, 30] was 20 and the “Plant response rating, Wheat” value [15, 29] was 0. For the same molecule, the “Plant response rating, Wheat” value [15, 30] was 10, the “Plant response rating, Ducksalad” value [16] was 0 and the “Plant response rating, Kochia” value ([17]; 125 g ai/ha) was 10. The “Plant response rating, Kochia” value ([17]; 500 g ai/ha) was 60, the “Plant response rating, Blackgrass” value [18, 29] was 30 and the “Plant response rating, Blackgrass” value [18, 30] was 80. For the same molecule, the “Plant response rating, Ragweed” value [19] was 0, the “Plant response rating, Galium” value ([20]; 125 g ai/ha) was 50 and the “Plant response rating, Galium” value ([20]; 500 g ai/ha) was 80. The “Plant response rating, Goosegrass” value ([21]; 125 g ai/ha) was 10, the “Plant response rating, Goosegrass” value ([21]; 500 g ai/ha) was 10 and the “Plant response rating, Soybean” value [22] was 100. For the same molecule, the “Plant response rating, Kochia” value [23, 29] was 0, the “Plant response rating, Kochia” value [23, 30] was 0 and the “Plant response rating, Wheat” value [24] was 20. For the same molecule, the “Plant response rating, Ryegrass, Italian” value [25] was 30, the “Plant response rating, Foxtail, Giant” value ([26]; 125 g ai/ha) was 10 and the “Plant response rating, Foxtail, Giant” value ([26]; 500 g ai/ha) was 30. For the same molecule, the “Plant response rating, Pigweed, Palmer” value [27, 29] was 20, the “Plant response rating, Pigweed, Palmer” value [27, 30] was 90 and the “Plant response rating, Soybean” value [28, 29] was 0. For the same molecule, the “Plant response rating, Soybean” value [28, 30] was 0.

With CCc1ncn(-c2cccc(C(=O)N3C[C@H](C)Oc4c(C)cccc43)c2)n1 [Compound 71] the “Plant response rating, Corn” value ([1]; 125 g ai/ha) was 60, the “Plant response rating, Corn” value ([1]; 500 g ai/ha) was 90 and the “Plant response rating, Ryegrass, Italian” value [2, 29] was 100. The “Plant response rating, Ryegrass, Italian” value [2, 30] was 100, the “Plant response rating, Oat, Wild” value [3, 29] was 90 and the “Plant response rating, Oat, Wild” value [3, 30] was 90. For the same molecule, the “Plant response rating, Foxtail, Giant” value [4, 29] was 100, the “Plant response rating, Foxtail, Giant” value [4, 30] was 100 and the “Plant response rating, Sedge, Umbrella” value [5] was 95. For the same molecule, the “Plant response rating, Rice” value [6] was 0, the “Plant response rating, Oat, Wild” value [7] was 80 and the “Plant response rating, Blackgrass” value [8, 31] was 80. For the same molecule, the “Plant response rating, Blackgrass” value [8, 32] was 90, the “Plant response rating, Goosegrass” value [9, 29] was 100 and the “Plant response rating, Goosegrass” value [9, 30] was 100. For the same molecule, the “Plant response rating, Pigweed, Palmer” value [10] was 70, the “Plant response rating, Barnyardgrass” value [11] was 0 and the “Plant response rating, Horseweed” value ([12]; 125 g ai/ha) was 30. For the same molecule, the “Plant response rating, Horseweed” value ([12]; 500 g ai/ha) was 80, the “Plant response rating, Ragweed” value [13, 29] was 0 and the “Plant response rating, Ragweed” value [13, 30] was 90. The “Plant response rating, Corn” value [14, 29] was 40, the “Plant response rating, Corn” value [14, 30] was 60 and the “Plant response rating, Wheat” value [15, 29] was 30. For the same molecule, the “Plant response rating, Wheat” value [15, 30] was 90, the “Plant response rating, Ducksalad” value [16] was 65 and the “Plant response rating, Kochia” value ([17]; 125 g ai/ha) was 60. The “Plant response rating, Kochia” value ([17]; 500 g ai/ha) was 90, the “Plant response rating, Blackgrass” value [18, 29] was 80 and the “Plant response rating, Blackgrass” value [18, 30] was 90. The “Plant response rating, Ragweed” value [19] was 80, the “Plant response rating, Galium” value ([20]; 125 g ai/ha) was 100 and the “Plant response rating, Galium” value ([20]; 500 g ai/ha) was 100. The “Plant response rating, Goosegrass” value ([21]; 125 g ai/ha) was 10, the “Plant response rating, Goosegrass” value ([21]; 500 g ai/ha) was 50 and the “Plant response rating, Soybean” value [22] was 100. The “Plant response rating, Kochia” value [23, 29] was 80, the “Plant response rating, Kochia” value [23, 30] was 100 and the “Plant response rating, Wheat” value [24] was 80. The “Plant response rating, Ryegrass, Italian” value [25] was 100, the “Plant response rating, Foxtail, Giant” value ([26]; 125 g ai/ha) was 90 and the “Plant response rating, Foxtail, Giant” value ([26]; 500 g ai/ha) was 90. For the same molecule, the “Plant response rating, Pigweed, Palmer” value [27, 29] was 100, the “Plant response rating, Pigweed, Palmer” value [27, 30] was 100 and the “Plant response rating, Soybean” value [28, 29] was 50. The “Plant response rating, Soybean” value [28, 30] was 90.
